In US9675556B2, “Biodegradable stealth polymeric particles fabricated using the macromonomer approach by free radical dispersion polymerization” (Howard University, priority 2010, dated 2017):

Key:
Test in all cases: CellTiter-Glo luminescent cell viability assay (in vitro cytotoxicity)
Type in all cases: cell-based
Details in all cases: […] to 120 nM paclitaxel, 48, 72 and 96 hours
SK-OV-3 cells = test system: SK-OV-3 cells
Method: (§1) The concentrations tested range from 2.5 nM to 120 nM. The experiment was carried out as follows: Cultured cells (MCF-7, SK-OV 3, and MDA-MB-231) were seeded in 96-well plates at a seeding density of 6000 cells/well/0.1 mL medium and allowed to attach for 24 hours. […] To allow direct comparison, the amount of paclitaxel-loaded nanoparticles containing the same amount of paclitaxel as the paclitaxel in solution was used. Control cells were treated with medium only, medium with 0.05% DMSO, and medium containing blank nanoparticles at the highest concentration tested.
(§2) Cell viability was assessed at 48-, 72- and 96-hours post treatment respectively. Briefly, at the predetermined time intervals the treatment was washed off and fresh medium added. An amount of the CellTiter®-Glo reagent equal to the amount of medium was added. The plate was mixed by shaking on an orbital shaker for 2 minutes to induce cell lysis and luminescence was measured after 10 minutes using the FLUOstar OPTIMA plate reader (BMG LABTECH). In this assay, the number of viable cells in culture is determined by quantification of the ATP present which is an index of the presence of metabolically active cells (CellTiter®-Glo Luminescent Cell Viability Assay Technical Bulletin, TB 288; Promega). Results are presented as percent viability normalized to controls and represent the mean±S.D. of 4 replicates per concentration tested, as shown in FIG. 9. The results were analyzed by using Student's t-test using the SPSS® statistical software. Differences were considered significant at p<0.05.

MCF-7 cells = test system: MCF-7 cells
Method: as §1, §2

MDA-MB-231 cells = test system: MDA-MB-231 cells
Method: as §1, §2

Measured: cell growth inhibition (cell viability)

CC(=O)O[C@H]1C(=O)[C@@]2(C)[C@H]([C@H](OC(=O)c3ccccc3)[C@]3(O)C[C@H](OC(=O)[C@H](O)[C@@H](NC(=O)c4ccccc4)c4ccccc4)C(C)=C1C3(C)C)[C@]1(OC(C)=O)CO[C@@H]1C[C@@H]2O [paclitaxel solution, paclitaxel]
inhibited cell growth: all assays above
